Data set [1] can be described thus: Preparation of liposome: maximum amount of compound forming liposome, particle size. It counts as physicochemical. Particulars: with dipalmitoyl-PC 50 nmol + dipalmitoyl-PS 50 nmol, 0.9% physiological saline, ultrasonicated. As for the experimental part:
According to the method described in J. Med. Chem., 25 (12), 1500 (1982), the disclosure of which is expressly incorporated by reference herein in its entirety, dipalmitoyl-PC (Funakoshi, No. 1201-41-0225), dipalmitoyl-PS (Funakoshi, No. 1201-42-0237), and the compound of the present invention, in the ratio described below, were dissolved in chloroform contained in an eggplant-shaped flask to obtain a uniform solution, and then the solvent was evaporated under reduced pressure to obtain a thin membrane formed on the bottom of the flask. The thin membrane was dried in vacuo, then added with an appropriate volume of 0.9% physiological saline (Hikari Pharmaceutical, No. 512) and ultrasonicated (probe type oscillator, Branson, No. 3542, 0.1 mW) for 5 minute with ice cooling to obtain a uniform liposome dispersion. Size of the particles contained in the resulting dispersion was measured by using WBC analyzer (Nihon Kohden, A-1042). The particle sizes were 85 to 110 nm.
Liposome formulation having the ratio of PC:PS:Compound d1-6=50:50:40 (nmol), and a particle sizes of 85 to 120 nm are prepared from a chloroform solution of PC (dipalmitoyl-phosphatidylcholine Funakoshi, No. 850355C), PS (dipalmitoyl-phosphatidylserine Funakoshi, No. 840037C), and Compound d1-6.

In a further data set the test system is ICR male mice. It counts as in vivo. As for the experimental part: Six-week old ICR male mice (Charles River Japan) were purchased, and after quarantine for 1 week, acclimatized for 1 week in a clean animal cage (air-conditioning: HEPA filter of class 1000, room temperature: 20 to 24° C., humidity: 35 to 60%). Then, in order to obtain the MTD value, a suspension of the test compound was administered from the caudal vein. The suspension was administered by using physiological saline (Hikari Pharmaceutical) or a glucose solution (Otsuka Pharmaceutical) as a medium. On the basis of the MTD value obtained, the suspension was administered everyday from the caudal vein for three consecutive days in an amount corresponding to ½ of the MTD value (n=3). Symptoms were observed up to 6 hours after each administration to observe neurotoxicity, and then autopsy was performed to examine major organs.
Compound (MTD (mg/kg)): neurotoxicity (“−” indicates negative for neurotoxicity, and “+” indicate positive for neurotoxicity)

Data set [2] relates to vascular smooth muscle cells. In words: Introduced amount of the compounds to vascular smooth muscle cells (mixture culture with macrophage). Particulars: liposome PC 50 nmol + PS 50 nmol + compound, 37° C., 5% CO2, 24 hours. It counts as cell-based. The protocol:
The above liposome agent was added to a mixture culture system of vascular smooth muscle cells and macrophage, described in WO 01/082897, the disclosure of which is expressly incorporated by reference herein in its entirety. After cultivation under 37° C., 5% CO2 for 24 hours, the amount of the compounds introduced to the vascular smooth muscle cells were quantitated.

[3] abbreviates: suspension administered from the caudal vein, ICR male mice.

Where two headings read alike, the source gives them in different places.

Regarding `CC(C)CCC[C@@H](C)[C@H]1CC[C@H]2[C@@H]3CC=C4C[C@@H](OC(=O)Oc5cc(C(F)(F)F)cc(C(F)(F)F)c5)CC[C@]4(C)[C@H]3CC[C@]12C` [Compound b1-1], the “Maximum amount forming liposome” value in data set [1] amounted to 40 nmol. For the same compound, the MTD in the data set with ICR male mice (setting [3]) was determined as 400 mg/kg. Besides, in data set [2], the Introduced amount was 17.5 nmol/mg protein.

For `CC(C)CCC[C@@H](C)[C@H]1CC[C@H]2[C@@H]3CC=C4C[C@@H](OC(=O)CCCCCCCCCC(C)Oc5cc(C(F)(F)F)cc(C(F)(F)F)c5)CC[C@]4(C)[C@H]3CC[C@]12C` (some centres unmarked) [Compound b1-8], the “Maximum amount forming liposome” value in data set [1] came to 20 nmol. Moreover, the MTD in the data set with ICR male mice (setting [3]) came to 400 mg/kg. In addition, in data set [2], the Introduced amount worked out at 8.9 nmol/mg protein.

Take `CC(C)CCC[C@@H](C)[C@H]1CC[C@H]2[C@@H]3CC=C4C[C@@H](OC(=O)CCC(=O)Oc5cc(C(F)(F)F)cc(C(F)(F)F)c5)CC[C@]4(C)[C@H]3CC[C@]12C` [Compound b4-2]: in data set [1], the “Maximum amount forming liposome” value was determined as 20 nmol. Also, the MTD in the data set on ICR male mice (setting [3]) is reported as 400 mg/kg. The Introduced amount in data set [2] was found to be 10.6 nmol/mg protein.

On to `O=C(CCCCCCCC(F)(F)C(F)(F)C(F)(F)C(F)(F)C(F)(F)C(F)(F)F)OCC(COC(=O)CN1CCOCC1)OC(=O)CCCCCCCC(F)(F)C(F)(F)C(F)(F)C(F)(F)C(F)(F)C(F)(F)F` (centres unmarked) [Compound e1-6], for which, in data set [1], the “Maximum amount forming liposome” value worked out at 40 nmol. In addition, in the data set on ICR male mice (mouse, in vivo), the MTD was found to be 400 mg/kg.

The values are drawn from patent publication US7887835B2, “Compound comprising a fluorine-substituted alkyl group and a liposome contrast medium comprising the compound” (priority 2006, dated 2011).
